Test results from ChEMBL document CHEMBL5360617, “C-2 Thiophenyl Tryptophan Trimers Inhibit Cellular Entry of SARS-CoV-2 through Interaction with the Viral Spike (S) Protein” (J Med Chem, 2023).

What was measured:
SARS-CoV-2 [1] = assay: (§1) Antiviral activity VSV-S pseudotyped SARS-CoV-2 Wuhan-Hu-1 harboring MN908947 mutant infected in Green monkey VeroE6/TMPRSS2 cells assessed as reduction in viral production at 10 uM preincubated with virus for 1 hrs followed by cell infection for 1 hrs and measured 24 hrs after replacement with fresh media with compound relative to control; type: functional, Severe acute respiratory syndrome coronavirus 2; parameters: scale not given: the % may be the effect or the level left; settings: time 26 hrs
SARS-CoV-2 [2] = assay: as §1, with “human A549-ACE2” for “Green monkey VeroE6/TMPRSS2”; type: functional, Severe acute respiratory syndrome coronavirus 2; parameters: scale not given: the % may be the effect or the level left; settings: time 26 hrs

| Structure (SMILES) | Activity (SARS-CoV-2 [1]) [%] | Activity (SARS-CoV-2 [2]) [%] |
| --- | --- | --- |
| CCC(CC)COC(=O)[C@H](C)N[P@](=O)(OC[C@H]1O[C@@](C#N)(c2ccc3c(N)ncnn23)[C@H](O)[C@@H]1O)Oc1ccccc1 | >89 | >98 |
| NCCOCCOCCC(=O)NCC(=O)NC(CCC(=O)NC(Cc1c(Sc2ccc([N+](=O)[O-])cc2)[nH]c2ccccc12)C(=O)O)(CCC(=O)NC(Cc1c(Sc2ccc([N+](=O)[O-])cc2)[nH]c2ccccc12)C(=O)O)CCC(=O)NC(Cc1c(Sc2ccc([N+](=O)[O-])cc2)[nH]c2ccccc12)C(=O)O (stereo unspecified) | >89 | >98 |
| O=C(CCOCCOCCOCCOCCC(=O)NCC(=O)NC(CCC(=O)NC(Cc1c(Sc2ccc([N+](=O)[O-])cc2)[nH]c2ccccc12)C(=O)O)(CCC(=O)NC(Cc1c(Sc2ccc([N+](=O)[O-])cc2)[nH]c2ccccc12)C(=O)O)CCC(=O)NC(Cc1c(Sc2ccc([N+](=O)[O-])cc2)[nH]c2ccccc12)C(=O)O)NCC(=O)NC(CCC(=O)NC(Cc1c(Sc2ccc([N+](=O)[O-])cc2)[nH]c2ccccc12)C(=O)O)(CCC(=O)NC(Cc1c(Sc2ccc([N+](=O)[O-])cc2)[nH]c2ccccc12)C(=O)O)CCC(=O)NC(Cc1c(Sc2ccc([N+](=O)[O-])cc2)[nH]c2ccccc12)C(=O)O (stereo unspecified) | >89 | >98 |
